ChEMBL document CHEMBL1201862, “PubChem BioAssay data set” (2004)
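Assay format: 96-well plates, 48-hour exposure. GI50 = concentration required for 50% inhibition of growth.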 Activity calls are given as the source filed them. No stated cut-off is given here; in the data, active = GI50 up to about 1.1 µM and inactive = higher. Where a SMILES comes first, the peptide text is derived from it.

What was measured:
Test in all cases: inhibition of tumour cell growth, NCI panel, 48 h
SNB-19 = system: SNB-19
U-251 = system: U-251
SK-MEL-28 = system: SK-MEL-28
NCI-H226 = system: NCI-H226
NCI-H23 = system: NCI-H23
PC-3 = system: PC-3
SR = system: SR
HOP-62 = system: HOP-62
Hs-578T = system: Hs-578T
CCRF-CEM = system: CCRF-CEM
Malme-3M = system: Malme-3M
TK-10 = system: TK-10
SF-295 = system: SF-295
MDA-MB-435 = system: MDA-MB-435
OVCAR-4 = system: OVCAR-4
HT-29 = system: HT-29
MOLT-4 = system: MOLT-4
OVCAR-3 = system: OVCAR-3
T47D = system: T47D
A549 = system: A549

## Nc1cc(S(N)(=O)=O)ccc1SSc1ccc(S(N)(=O)=O)cc1N
SNB-19
  GI50: > 100 µM (inactive)
U-251
  GI50: > 100 µM (inactive)
SK-MEL-28
  GI50: > 100 µM (inactive)
NCI-H226
  GI50: > 100 µM (inactive)
NCI-H23
  GI50: > 100 µM (inactive)
PC-3
  GI50: > 100 µM (inactive)
SR
  GI50: 57 µM (inactive)
HOP-62
  GI50: > 100 µM (inactive)
Hs-578T
  GI50: > 100 µM (inactive)
CCRF-CEM
  GI50: 8.49 µM (inactive)
Malme-3M
  GI50: > 100 µM (inactive)
TK-10
  GI50: > 100 µM (inactive)
SF-295
  GI50: > 100 µM (inactive)
MDA-MB-435
  GI50: > 100 µM (inactive)
OVCAR-4
  GI50: > 100 µM (inactive)
HT-29
  GI50: > 100 µM (inactive)
MOLT-4
  GI50: 62.7 µM (inactive)
OVCAR-3
  GI50: > 100 µM (inactive)
T47D
  GI50: > 100 µM (inactive)
A549
  GI50: > 100 µM (inactive)

## COC1(C)Cc2c(c(C)c(O)c3c2C(=O)C=C(Cl)C3=O)O1 (stereo not given)
SNB-19
  GI50: > 100 µM (inactive)
U-251
  GI50: > 75.5 µM (inactive)
SK-MEL-28
  GI50: 39.7 µM (inactive)
NCI-H226
  GI50: > 100 µM (inactive)
NCI-H23
  GI50: 66.8 µM (inactive)
PC-3
  GI50: > 100 µM (inactive)
SR
  GI50: 3.89 µM (inactive)
HOP-62
  GI50: > 100 µM (inactive)
Hs-578T
  GI50: 23.5 µM (inactive)
CCRF-CEM
  GI50: 3.39 µM (inactive)
Malme-3M
  GI50: 13.5 µM (inactive)
TK-10
  GI50: 22.7 µM (inactive)
SF-295
  GI50: > 100 µM (inactive)
MDA-MB-435
  GI50: > 100 µM (inactive)
OVCAR-4
  GI50: 41.3 µM (inactive)
HT-29
  GI50: 28.9 µM (inactive)
MOLT-4
  GI50: 7.5 µM (inactive)
OVCAR-3
  GI50: 44.2 µM (inactive)
T47D
  GI50: 13.4 µM (inactive)
A549
  GI50: > 100 µM (inactive)

## NCCSS(=O)(=O)CCN
SNB-19
  GI50: > 100 µM (inactive)
U-251
  GI50: > 100 µM (inactive)
SK-MEL-28
  GI50: > 100 µM (inactive)
NCI-H226
  GI50: > 100 µM (inactive)
NCI-H23
  GI50: > 100 µM (inactive)
PC-3
  GI50: > 100 µM (inactive)
SR
  GI50: > 100 µM (inactive)
HOP-62
  GI50: > 100 µM (inactive)
Hs-578T
  GI50: > 100 µM (inactive)
CCRF-CEM
  GI50: > 100 µM (inactive)
Malme-3M
  GI50: > 100 µM (inactive)
TK-10
  GI50: > 100 µM (inactive)
SF-295
  GI50: > 100 µM (inactive)
MDA-MB-435
  GI50: > 100 µM (inactive)
OVCAR-4
  GI50: > 100 µM (inactive)
HT-29
  GI50: > 100 µM (inactive)
MOLT-4
  GI50: > 100 µM (inactive)
OVCAR-3
  GI50: > 100 µM (inactive)
T47D
  GI50: > 100 µM (inactive)
A549
  GI50: > 100 µM (inactive)

## NC(=O)CSc1c2cc(O)ccc2nc2ccc(O)cc12
SNB-19
  GI50: > 10 µM (inactive)
U-251
  GI50: > 10 µM (inactive)
SK-MEL-28
  GI50: > 10 µM (inactive)
NCI-H226
  GI50: > 10 µM (inactive)
NCI-H23
  GI50: > 10 µM (inactive)
PC-3
  GI50: > 10 µM (inactive)
SR
  GI50: > 10 µM (inactive)
HOP-62
  GI50: > 10 µM (inactive)
Hs-578T
  GI50: > 10 µM (inactive)
CCRF-CEM
  GI50: > 10 µM (inactive)
Malme-3M
  GI50: > 10 µM (inactive)
TK-10
  GI50: > 10 µM (inactive)
SF-295
  GI50: > 10 µM (inactive)
MDA-MB-435
  GI50: > 10 µM (inactive)
OVCAR-4
  GI50: > 10 µM (inactive)
HT-29
  GI50: > 10 µM (inactive)
MOLT-4
  GI50: > 10 µM (inactive)
OVCAR-3
  GI50: > 10 µM (inactive)
T47D
  GI50: > 10 µM (inactive)
A549
  GI50: > 10 µM (inactive)

## N/C(=N\Nc1ccc(Cl)cc1)c1cnccn1
SNB-19
  GI50: > 100 µM (inactive)
U-251
  GI50: > 100 µM (inactive)
SK-MEL-28
  GI50: 73.6 µM (inactive)
NCI-H226
  GI50: 48.8 µM (inactive)
NCI-H23
  GI50: > 100 µM (inactive)
PC-3
  GI50: 54.7 µM (inactive)
SR
  GI50: 5.71 µM (inactive)
HOP-62
  GI50: 85.5 µM (inactive)
Hs-578T
  GI50: > 100 µM (inactive)
CCRF-CEM
  GI50: 28.6 µM (inactive)
Malme-3M
  GI50: 95.9 µM (inactive)
TK-10
  GI50: > 100 µM (inactive)
SF-295
  GI50: 13.2 µM (inactive)
MDA-MB-435
  GI50: 16.3 µM (inactive)
OVCAR-4
  GI50: 29.1 µM (inactive)
HT-29
  GI50: 32.3 µM (inactive)
MOLT-4
  GI50: 39.8 µM (inactive)
OVCAR-3
  GI50: 64.3 µM (inactive)
T47D
  GI50: 13 µM (inactive)
A549
  GI50: > 100 µM (inactive)

## CC(C)CC(NC(=O)C(Cc1ccccc1)NC(=O)C(Cc1c[nH]c2ccccc12)NC(=O)CNC(=O)C(N)Cc1ccc(O)cc1)C(=O)O (stereo not given) (H-YGWFL-OH; configuration not given here)
SNB-19
  GI50: 51.6 µM (inactive)
U-251
  GI50: 34.6 µM (inactive)
SK-MEL-28
  GI50: 95.3 µM (inactive)
NCI-H226
  GI50: 46.8 µM (inactive)
NCI-H23
  GI50: 30.1 µM (inactive)
PC-3
  GI50: 44.7 µM (inactive)
SR
  GI50: 32.4 µM (inactive)
HOP-62
  GI50: 46.5 µM (inactive)
Hs-578T
  GI50: 42 µM (inactive)
CCRF-CEM
  GI50: 42.6 µM (inactive)
Malme-3M
  GI50: 21.2 µM (inactive)
TK-10
  GI50: 78.7 µM (inactive)
SF-295
  GI50: 49.7 µM (inactive)
MDA-MB-435
  GI50: 34.9 µM (inactive)
OVCAR-4
  GI50: 30.2 µM (inactive)
HT-29
  GI50: 30.8 µM (inactive)
MOLT-4
  GI50: 59.7 µM (inactive)
OVCAR-3
  GI50: 23.2 µM (inactive)
T47D
  GI50: 25.6 µM (inactive)
A549
  GI50: 37.4 µM (inactive)

## O=C1Sc2cc3ccccc3cc2C(=O)Sc2cc3ccccc3cc21
SNB-19
  GI50: 47.1 µM (inactive)
U-251
  GI50: 29.6 µM (inactive)
SK-MEL-28
  GI50: 28.6 µM (inactive)
NCI-H226
  GI50: > 100 µM (inactive)
NCI-H23
  GI50: 43.3 µM (inactive)
PC-3
  GI50: 33.9 µM (inactive)
SR
  GI50: 0.454 µM (active)
HOP-62
  GI50: 27.3 µM (inactive)
Hs-578T
  GI50: 44.6 µM (inactive)
CCRF-CEM
  GI50: 2.6 µM (inactive)
Malme-3M
  GI50: 34.9 µM (inactive)
TK-10
  GI50: 55.2 µM (inactive)
SF-295
  GI50: > 87.3 µM (inactive)
MDA-MB-435
  GI50: 30.8 µM (inactive)
OVCAR-4
  GI50: 23.2 µM (inactive)
HT-29
  GI50: 28 µM (inactive)
MOLT-4
  GI50: 15.9 µM (inactive)
OVCAR-3
  GI50: 21.1 µM (inactive)
T47D
  GI50: 23.3 µM (inactive)
A549
  GI50: 81.7 µM (inactive)
